Counter-ions that a name gives are not always drawn.
Biological target: T1, postsynaptic alpha-adrenergic receptors (Rattus norvegicus, UniProt P43140)
T1 construct: contraction of the isolated vas deferens; from tissue; host or cells: isolated rat vas deferens
T1 sequence (P43140 1-466): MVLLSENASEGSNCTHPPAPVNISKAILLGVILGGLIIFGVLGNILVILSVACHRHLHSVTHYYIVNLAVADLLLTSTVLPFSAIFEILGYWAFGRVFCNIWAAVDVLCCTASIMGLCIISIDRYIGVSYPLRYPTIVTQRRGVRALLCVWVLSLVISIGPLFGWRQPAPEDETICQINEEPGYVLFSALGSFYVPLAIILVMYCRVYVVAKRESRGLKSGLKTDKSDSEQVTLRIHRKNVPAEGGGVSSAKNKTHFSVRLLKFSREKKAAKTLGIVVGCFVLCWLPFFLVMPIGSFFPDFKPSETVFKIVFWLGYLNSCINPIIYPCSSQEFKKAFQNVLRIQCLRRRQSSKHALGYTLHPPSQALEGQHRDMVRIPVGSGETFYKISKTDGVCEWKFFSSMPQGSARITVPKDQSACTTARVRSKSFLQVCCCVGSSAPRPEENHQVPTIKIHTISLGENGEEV
Assay: Alpha-blocking activity on isolated rat vas deferens
Format: cell-based
Conditions: norepinephrine contraction, -log of product concentration at which norepinephrine concentration must be doubled, read-out: pA2 (converted)
From the text: 2. Determination of the Alpha-Blocking Activity on Isolated Rat Vas Deferens
Stimulation of the postsynaptic alpha-adrenergic receptors by norepinephrine causes contraction of the isolated vas deferens. The aim is to find the product concentration in whose presence the norepinephrine concentration must be doubled in order to obtain the same effect as in the absence of said product.
The logarithm of this concentration, with its sign changed, represents the pA2 value of the product.

Row | SMILES | Kb
1 | CCOc1ccccc1N1CCN(CCOc2cc(C)ccc2C(C)C)CC1 [B 1178, 3-[2-(4-o-ethoxyphenylpiperazin-1-yl)ethoxy]-p-cymene dihydrochloride] | 72.4 nM
2 | Cc1ccc(C(C)C)c(OCCN2CCN(c3ccccc3Cl)CC2)c1 [B 1299, 3-[2-(4-o-chlorophenylpiperazin-1-yl)ethoxy]-p-cymene hydrochloride] | 347 nM
3 | COc1ccc(N2CCN(CCOc3cc(C)ccc3C(C)C)CC2)c(OC)c1 [B 1362] | > 1000 nM
4 | Cc1ccc(C(C)C)c(OCCN2CCN(c3ccc(F)cc3)CC2)c1 [B.1055, 3-[2-(4-p-fluorophenylpiperazin-1-yl)ethoxy]-p-cymene dihydrochloride] | 468 nM
5 | Cc1ccc(C(C)C)c(OCCN2CCN(c3ccccc3)CC2)c1 [B.1057, 3-[2-(4-phenylpiperazin-1-yl)ethoxy]-p-cymene dihydrochloride] | 398 nM
6 | Cc1ccc(C(C)C)c(OCCN2CCN(c3cccc(C(F)(F)F)c3)CC2)c1 [B.1079, 3-[2-(4-α,α,α-trifluoro-m-tolylpiperazin-1-yl)ethoxy]-p-cymene monohydrochloride] | > 1000 nM
7 | CC(=O)c1ccc(N2CCN(CCOc3cc(C)ccc3C(C)C)CC2)cc1 [B.1105, 3-[2-(4-p-acetylphenylpiperazin-1-yl)ethoxy]-p-cymene hydrochloride] | 537 nM
8 | COc1ccc(N2CCN(CCOc3cc(C)ccc3C(C)C)CC2)cc1 [B.1115, 3-[2-(4-p-methoxyphenylpiperazin-1-yl)ethoxy]-p-cymene dihydrochloride] | 288 nM
9 | COc1ccccc1N1CCN(CCOc2cc(C)ccc2C(C)C)CC1 [B.1168, 3-[2-(4-o-methoxyphenylpiperazin-1-yl)-ethoxy]-p-cymene dihydrochloride] | 195 nM
10 | Cc1ccc(C(C)C)c(OCCN2CCN(c3ccc(Cl)cc3)CC2)c1 [B.1191, 3-[2-(4-p-chlorophenylpiperazin-1-yl)ethoxy]-p-cymene dihydrochloride] | 331 nM
11 | CCOc1cccc(N2CCN(CCOc3cc(C)ccc3C(C)C)CC2)c1 [B.1204, 3-[2-(4-m-ethoxyphenylpiperazin-1-yl)ethoxy]-p-cymene hydrochlroide] | 1000 nM
12 | COc1cccc(N2CCN(CCOc3cc(C)ccc3C(C)C)CC2)c1 [B.1206, 3-[2-(4-m-methoxyphenylpiperazin-1-yl)ethoxy]-p-cymene hydrochloride] | 170 nM
13 | Cc1ccc(C(C)C)c(OCCN2CCN(c3ccccc3C)CC2)c1 [B.1213, 3-[2-(4-o-methylphenylpiperazin-1-yl)-ethoxy]-p-cymene hydrochloride] | 1100 nM

System: toxicity of norepinephrine
Assay: Adrenolytic activity in vivo in rats (protection against norepinephrine lethality)
Conditions: Rattus norvegicus, oral 30 minutes before i.v. norepinephrine 0.4 mg.kg^-1, dose protecting 50 percent of animals
Description: 4. Determination of the Adrenolytic Activity "In Vivo" in Rats
The intravenous injection of norepinephrine (0.4 mg.kg^-1) in wake rats causes the death of 100 percent of the animals. The prior administration of a substance with an alpha-blocking property makes it possible to reduce this toxicity.
The products claimed were administered orally 30 minutes before the intravenous injection of norepinephrine.
These are expressed in the form of the 50% effective dose (ED50), i.e. the dose, in mg.kg^-1, which protects 50 percent of the animals.

Row | SMILES | ED50
14 | CCOc1ccccc1N1CCN(CCOc2cc(C)ccc2C(C)C)CC1 [B 1178, 3-[2-(4-o-ethoxyphenylpiperazin-1-yl)ethoxy]-p-cymene dihydrochloride] | 2 mg/kg
15 | Cc1ccc(C(C)C)c(OCCN2CCN(c3ccccc3Cl)CC2)c1 [B 1299, 3-[2-(4-o-chlorophenylpiperazin-1-yl)ethoxy]-p-cymene hydrochloride] | 10 mg/kg
16 | COc1ccc(N2CCN(CCOc3cc(C)ccc3C(C)C)CC2)c(OC)c1 [B 1362] | 37.3 mg/kg
17 | Cc1ccc(C(C)C)c(OCCN2CCN(c3ccc(F)cc3)CC2)c1 [B.1055, 3-[2-(4-p-fluorophenylpiperazin-1-yl)ethoxy]-p-cymene dihydrochloride] | > 100 mg/kg
18 | Cc1ccc(C(C)C)c(OCCN2CCN(c3ccccc3)CC2)c1 [B.1057, 3-[2-(4-phenylpiperazin-1-yl)ethoxy]-p-cymene dihydrochloride] | > 100 mg/kg
19 | Cc1ccc(C(C)C)c(OCCN2CCN(c3cccc(C(F)(F)F)c3)CC2)c1 [B.1079, 3-[2-(4-α,α,α-trifluoro-m-tolylpiperazin-1-yl)ethoxy]-p-cymene monohydrochloride] | > 100 mg/kg
20 | CC(=O)c1ccc(N2CCN(CCOc3cc(C)ccc3C(C)C)CC2)cc1 [B.1105, 3-[2-(4-p-acetylphenylpiperazin-1-yl)ethoxy]-p-cymene hydrochloride] | 200 mg/kg
21 | COc1ccc(N2CCN(CCOc3cc(C)ccc3C(C)C)CC2)cc1 [B.1115, 3-[2-(4-p-methoxyphenylpiperazin-1-yl)ethoxy]-p-cymene dihydrochloride] | 200 mg/kg
22 | COc1ccccc1N1CCN(CCOc2cc(C)ccc2C(C)C)CC1 [B.1168, 3-[2-(4-o-methoxyphenylpiperazin-1-yl)-ethoxy]-p-cymene dihydrochloride] | 3 mg/kg
23 | Cc1ccc(C(C)C)c(OCCN2CCN(c3ccc(Cl)cc3)CC2)c1 [B.1191, 3-[2-(4-p-chlorophenylpiperazin-1-yl)ethoxy]-p-cymene dihydrochloride] | > 100 mg/kg
24 | CCOc1cccc(N2CCN(CCOc3cc(C)ccc3C(C)C)CC2)c1 [B.1204, 3-[2-(4-m-ethoxyphenylpiperazin-1-yl)ethoxy]-p-cymene hydrochlroide] | 56 mg/kg
25 | COc1cccc(N2CCN(CCOc3cc(C)ccc3C(C)C)CC2)c1 [B.1206, 3-[2-(4-m-methoxyphenylpiperazin-1-yl)ethoxy]-p-cymene hydrochloride] | 100 mg/kg
26 | Cc1ccc(C(C)C)c(OCCN2CCN(c3ccccc3C)CC2)c1 [B.1213, 3-[2-(4-o-methylphenylpiperazin-1-yl)-ethoxy]-p-cymene hydrochloride] | 15 mg/kg

Same assay, conditions: oral

Row | SMILES | protection against the toxicity of norepinephrine (in words)
27 | CCOc1ccccc1N1CCN(CCOc2cc(C)ccc2C(C)C)CC1 [B 1178, 3-[2-(4-o-ethoxyphenylpiperazin-1-yl)ethoxy]-p-cymene dihydrochloride] | excellent protection against the toxicity of norepinephrine
28 | Cc1ccc(C(C)C)c(OCCN2CCN(c3ccccc3Cl)CC2)c1 [B 1299, 3-[2-(4-o-chlorophenylpiperazin-1-yl)ethoxy]-p-cymene hydrochloride] | excellent protection against the toxicity of norepinephrine
29 | COc1ccccc1N1CCN(CCOc2cc(C)ccc2C(C)C)CC1 [B.1168, 3-[2-(4-o-methoxyphenylpiperazin-1-yl)-ethoxy]-p-cymene dihydrochloride] | excellent protection against the toxicity of norepinephrine

System: arterial pressure
Assay: Norepinephrine-induced arterial hyperpressure in anesthetized rabbits
Format: in vivo
Conditions: Oryctolagus cuniculus, iv, norepinephrine i.v., 50% inhibition of increase in arterial pressure, read-out: Arterial pressure ID50
Description: (§1) 5. Activity on Ureteral Hyperpressure in Rabbits
(§2) An increase in the arterial pressure and the ureteral pressure is induced in anesthetized rabbits by an intravenous injection of norepinephrine. These hyperpressures can be inhibited by the prior administration of molecules with alpha-blocking potential.
The efficacy is assessed by the 50% inhibitory dose (ID50), i.e. the dose which inhibits the increases in arterial and ureteral pressures by 50 percent.

Row | SMILES | ED50
30 | CCOc1ccccc1N1CCN(CCOc2cc(C)ccc2C(C)C)CC1 [B 1178, 3-[2-(4-o-ethoxyphenylpiperazin-1-yl)ethoxy]-p-cymene dihydrochloride] | 3.9 mg/kg

System: ureteral pressure
Assay: Norepinephrine-induced ureteral hyperpressure in anesthetized rabbits
Format: in vivo
Conditions: I.V.
From the text: as §1, §2

Row | SMILES | ratio of ID50 arterial pressure to ID50 ureteral pressure
31 | CCOc1ccccc1N1CCN(CCOc2cc(C)ccc2C(C)C)CC1 [B 1178, 3-[2-(4-o-ethoxyphenylpiperazin-1-yl)ethoxy]-p-cymene dihydrochloride] | 10.6

Same assay, conditions: Oryctolagus cuniculus, iv, norepinephrine i.v., 50% inhibition of increase in ureteral pressure, read-out: Ureteral pressure ID50

Row | SMILES | ED50
32 | CCOc1ccccc1N1CCN(CCOc2cc(C)ccc2C(C)C)CC1 [B 1178, 3-[2-(4-o-ethoxyphenylpiperazin-1-yl)ethoxy]-p-cymene dihydrochloride] | 0.37 mg/kg

System: not listed separately
Assay: Acute toxicity in mice, single oral dose
Conditions: mouse, in vivo, p.o., 14-day observation
Description: The products were administered orally to mice in a single dose. After a 14-day observation period, the mortality was recorded.
The results are expressed in the form of the 50% lethal dose (LD50) in mg.kg^-1.

Row | SMILES | LD50 at 336 h
33 | CCOc1ccccc1N1CCN(CCOc2cc(C)ccc2C(C)C)CC1 [B 1178, 3-[2-(4-o-ethoxyphenylpiperazin-1-yl)ethoxy]-p-cymene dihydrochloride] | > 1000 mg/kg
34 | Cc1ccc(C(C)C)c(OCCN2CCN(c3ccccc3Cl)CC2)c1 [B 1299, 3-[2-(4-o-chlorophenylpiperazin-1-yl)ethoxy]-p-cymene hydrochloride] | > 1000 mg/kg
35 | COc1ccc(N2CCN(CCOc3cc(C)ccc3C(C)C)CC2)c(OC)c1 [B 1362] | 897 mg/kg
36 | Cc1ccc(C(C)C)c(OCCN2CCN(c3ccc(F)cc3)CC2)c1 [B.1055, 3-[2-(4-p-fluorophenylpiperazin-1-yl)ethoxy]-p-cymene dihydrochloride] | > 1000 mg/kg
37 | Cc1ccc(C(C)C)c(OCCN2CCN(c3ccccc3)CC2)c1 [B.1057, 3-[2-(4-phenylpiperazin-1-yl)ethoxy]-p-cymene dihydrochloride] | > 1000 mg/kg
38 | Cc1ccc(C(C)C)c(OCCN2CCN(c3cccc(C(F)(F)F)c3)CC2)c1 [B.1079, 3-[2-(4-α,α,α-trifluoro-m-tolylpiperazin-1-yl)ethoxy]-p-cymene monohydrochloride] | > 1000 mg/kg
39 | CC(=O)c1ccc(N2CCN(CCOc3cc(C)ccc3C(C)C)CC2)cc1 [B.1105, 3-[2-(4-p-acetylphenylpiperazin-1-yl)ethoxy]-p-cymene hydrochloride] | ~540 mg/kg
40 | COc1ccc(N2CCN(CCOc3cc(C)ccc3C(C)C)CC2)cc1 [B.1115, 3-[2-(4-p-methoxyphenylpiperazin-1-yl)ethoxy]-p-cymene dihydrochloride] | > 1000 mg/kg
41 | COc1ccccc1N1CCN(CCOc2cc(C)ccc2C(C)C)CC1 [B.1168, 3-[2-(4-o-methoxyphenylpiperazin-1-yl)-ethoxy]-p-cymene dihydrochloride] | > 1000 mg/kg
42 | Cc1ccc(C(C)C)c(OCCN2CCN(c3ccc(Cl)cc3)CC2)c1 [B.1191, 3-[2-(4-p-chlorophenylpiperazin-1-yl)ethoxy]-p-cymene dihydrochloride] | > 1000 mg/kg
43 | CCOc1cccc(N2CCN(CCOc3cc(C)ccc3C(C)C)CC2)c1 [B.1204, 3-[2-(4-m-ethoxyphenylpiperazin-1-yl)ethoxy]-p-cymene hydrochlroide] | > 1000 mg/kg
44 | COc1cccc(N2CCN(CCOc3cc(C)ccc3C(C)C)CC2)c1 [B.1206, 3-[2-(4-m-methoxyphenylpiperazin-1-yl)ethoxy]-p-cymene hydrochloride] | > 1000 mg/kg
45 | Cc1ccc(C(C)C)c(OCCN2CCN(c3ccccc3C)CC2)c1 [B.1213, 3-[2-(4-o-methylphenylpiperazin-1-yl)-ethoxy]-p-cymene hydrochloride] | > 1000 mg/kg

From patent publication US5110816A, “3-[2-(4-arylpiperazin-1-yl)ethoxy]-p-cymene, the method of preparing and composition thereof” (Institut de Recherches Chimiques et Biologiques Appliquees …, priority 1988, dated 1992)
